What was measured:
ABL1-nonphosphorylated = target: T1, ABL1-nonphosphorylated (Homo sapiens, UniProt P00519); test: scanMAX Kinase analysis panel (DiscoverX); format: binding; settings: drug 1 μM in DMSO; from % control
T1 construct: purchased DiscoverX scanMAX Kinase analysis panel
Description: (§1) [(Example compound−positive control)/(negative control−positive control)×100]

ALK = target: T2, ALK (Homo sapiens, UniProt Q9UM73); test: scanMAX Kinase analysis panel (DiscoverX); format: binding; settings: drug 1 μM in DMSO; from % control
T2 construct: purchased DiscoverX scanMAX Kinase analysis panel
Description: as §1

ALK(C1156Y) = target: T3, ALK(C1156Y) (Homo sapiens, UniProt Q9UM73, C1156Y); test: scanMAX Kinase analysis panel (DiscoverX); format: binding; settings: drug 1 μM in DMSO; from % control
T3 construct: purchased DiscoverX scanMAX Kinase analysis panel
T3 sequence (Q9UM73 19-1620 C1156Y): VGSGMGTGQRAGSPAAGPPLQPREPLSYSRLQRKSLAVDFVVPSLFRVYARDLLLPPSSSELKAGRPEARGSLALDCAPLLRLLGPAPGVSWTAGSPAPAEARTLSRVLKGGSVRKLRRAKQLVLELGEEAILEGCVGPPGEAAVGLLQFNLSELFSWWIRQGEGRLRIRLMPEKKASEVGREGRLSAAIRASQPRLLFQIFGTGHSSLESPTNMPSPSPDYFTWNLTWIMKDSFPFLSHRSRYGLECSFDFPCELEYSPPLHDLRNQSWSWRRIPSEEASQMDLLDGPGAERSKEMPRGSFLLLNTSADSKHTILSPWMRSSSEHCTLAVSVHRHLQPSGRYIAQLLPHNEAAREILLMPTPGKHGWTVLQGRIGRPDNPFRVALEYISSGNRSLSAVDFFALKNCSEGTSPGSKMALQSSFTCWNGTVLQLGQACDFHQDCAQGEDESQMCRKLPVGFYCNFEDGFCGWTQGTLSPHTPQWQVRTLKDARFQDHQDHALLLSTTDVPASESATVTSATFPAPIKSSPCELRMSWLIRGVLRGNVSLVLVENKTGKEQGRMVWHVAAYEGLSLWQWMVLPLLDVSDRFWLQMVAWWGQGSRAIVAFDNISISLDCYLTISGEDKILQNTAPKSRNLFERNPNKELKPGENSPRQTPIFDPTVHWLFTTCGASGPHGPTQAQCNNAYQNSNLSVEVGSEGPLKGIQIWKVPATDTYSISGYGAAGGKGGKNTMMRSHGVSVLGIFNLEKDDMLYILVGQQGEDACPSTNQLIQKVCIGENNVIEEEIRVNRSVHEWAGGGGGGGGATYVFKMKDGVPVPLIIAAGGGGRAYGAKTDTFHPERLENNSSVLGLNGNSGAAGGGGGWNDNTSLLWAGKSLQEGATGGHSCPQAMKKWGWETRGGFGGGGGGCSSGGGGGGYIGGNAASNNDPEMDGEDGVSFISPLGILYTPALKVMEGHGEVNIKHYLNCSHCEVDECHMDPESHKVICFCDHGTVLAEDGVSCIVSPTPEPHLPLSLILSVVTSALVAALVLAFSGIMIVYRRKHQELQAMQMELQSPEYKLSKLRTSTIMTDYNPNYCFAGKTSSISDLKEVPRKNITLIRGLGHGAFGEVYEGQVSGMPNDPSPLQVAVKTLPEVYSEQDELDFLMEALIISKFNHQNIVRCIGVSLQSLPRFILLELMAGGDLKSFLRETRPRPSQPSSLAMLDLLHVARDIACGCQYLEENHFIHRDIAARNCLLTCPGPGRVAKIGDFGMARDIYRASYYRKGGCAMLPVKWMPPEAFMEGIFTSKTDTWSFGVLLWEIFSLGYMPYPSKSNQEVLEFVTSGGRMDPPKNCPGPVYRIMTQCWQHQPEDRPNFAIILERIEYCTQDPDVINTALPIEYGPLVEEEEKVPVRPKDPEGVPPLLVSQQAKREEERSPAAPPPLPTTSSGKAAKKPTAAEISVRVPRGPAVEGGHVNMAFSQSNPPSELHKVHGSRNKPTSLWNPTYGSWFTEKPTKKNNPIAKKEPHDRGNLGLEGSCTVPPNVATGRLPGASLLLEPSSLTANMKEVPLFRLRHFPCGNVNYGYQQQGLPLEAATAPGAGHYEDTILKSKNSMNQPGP
Description: as §1

CAMKK2 = target: T4, CAMKK2 (Homo sapiens, UniProt Q96RR4); test: scanMAX Kinase analysis panel (DiscoverX); format: binding; settings: drug 1 μM in DMSO; from % control
T4 construct: purchased DiscoverX scanMAX Kinase analysis panel
Description: as §1

CHEK2 = target: T5, CHEK2 (Homo sapiens, UniProt O96017); test: scanMAX Kinase analysis panel (DiscoverX); format: binding; settings: drug 1 μM in DMSO; from % control
T5 construct: purchased DiscoverX scanMAX Kinase analysis panel
Description: as §1

CSNK1D = target: T6, CSNK1D (Homo sapiens, UniProt P48730); test: scanMAX Kinase analysis panel (DiscoverX); format: binding
T6 construct: purchased DiscoverX scanMAX Kinase analysis panel
T6 sequence (P48730 whole entry): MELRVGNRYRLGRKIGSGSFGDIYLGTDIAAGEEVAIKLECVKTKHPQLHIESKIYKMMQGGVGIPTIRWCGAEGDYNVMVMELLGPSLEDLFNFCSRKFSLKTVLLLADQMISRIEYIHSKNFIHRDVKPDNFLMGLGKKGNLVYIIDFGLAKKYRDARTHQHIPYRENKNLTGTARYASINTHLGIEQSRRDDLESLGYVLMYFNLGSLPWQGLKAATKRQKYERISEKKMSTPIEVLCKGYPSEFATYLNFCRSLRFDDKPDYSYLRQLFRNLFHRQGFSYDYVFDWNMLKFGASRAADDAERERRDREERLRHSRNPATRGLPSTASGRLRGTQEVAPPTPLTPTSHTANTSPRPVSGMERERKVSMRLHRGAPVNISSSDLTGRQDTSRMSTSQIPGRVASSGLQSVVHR
Description: as §1

ERK5 = target: T7, ERK5 (Homo sapiens, UniProt Q13164); test: scanMAX Kinase analysis panel (DiscoverX); format: binding; settings: drug 1 μM in DMSO; from % control
T7 construct: purchased DiscoverX
T7 sequence (Q13164 whole entry): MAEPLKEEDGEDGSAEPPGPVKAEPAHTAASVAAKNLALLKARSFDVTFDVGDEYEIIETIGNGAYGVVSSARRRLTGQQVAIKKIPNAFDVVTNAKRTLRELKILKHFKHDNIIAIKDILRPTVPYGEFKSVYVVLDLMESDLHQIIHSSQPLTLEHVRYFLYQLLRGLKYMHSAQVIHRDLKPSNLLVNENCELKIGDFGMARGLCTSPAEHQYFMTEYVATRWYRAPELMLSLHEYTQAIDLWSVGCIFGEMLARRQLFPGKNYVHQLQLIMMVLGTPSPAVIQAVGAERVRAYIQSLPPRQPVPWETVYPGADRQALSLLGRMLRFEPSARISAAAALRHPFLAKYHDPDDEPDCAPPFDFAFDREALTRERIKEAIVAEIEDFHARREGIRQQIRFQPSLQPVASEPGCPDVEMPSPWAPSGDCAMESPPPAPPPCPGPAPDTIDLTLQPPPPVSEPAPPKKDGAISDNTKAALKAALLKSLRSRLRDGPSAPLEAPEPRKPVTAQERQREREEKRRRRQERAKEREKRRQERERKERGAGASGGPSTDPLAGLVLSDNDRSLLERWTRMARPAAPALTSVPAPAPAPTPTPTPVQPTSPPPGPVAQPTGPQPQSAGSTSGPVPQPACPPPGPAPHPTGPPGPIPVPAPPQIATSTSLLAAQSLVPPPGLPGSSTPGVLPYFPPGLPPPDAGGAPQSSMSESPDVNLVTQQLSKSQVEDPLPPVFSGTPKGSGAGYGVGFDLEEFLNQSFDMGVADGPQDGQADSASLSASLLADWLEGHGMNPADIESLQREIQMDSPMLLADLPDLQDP
Description: as §1

GAK = target: T8, GAK (Homo sapiens, UniProt O14976); test: scanMAX Kinase analysis panel (DiscoverX); format: binding; settings: drug 1 μM in DMSO; from % control
T8 construct: purchased DiscoverX scanMAX Kinase analysis panel
Description: as §1

HUNK = target: T9, HUNK (Homo sapiens, UniProt P57058); test: scanMAX Kinase analysis panel (DiscoverX); format: binding; settings: drug 1 μM in DMSO; from % control
T9 construct: purchased DiscoverX
T9 sequence (P57058 whole entry): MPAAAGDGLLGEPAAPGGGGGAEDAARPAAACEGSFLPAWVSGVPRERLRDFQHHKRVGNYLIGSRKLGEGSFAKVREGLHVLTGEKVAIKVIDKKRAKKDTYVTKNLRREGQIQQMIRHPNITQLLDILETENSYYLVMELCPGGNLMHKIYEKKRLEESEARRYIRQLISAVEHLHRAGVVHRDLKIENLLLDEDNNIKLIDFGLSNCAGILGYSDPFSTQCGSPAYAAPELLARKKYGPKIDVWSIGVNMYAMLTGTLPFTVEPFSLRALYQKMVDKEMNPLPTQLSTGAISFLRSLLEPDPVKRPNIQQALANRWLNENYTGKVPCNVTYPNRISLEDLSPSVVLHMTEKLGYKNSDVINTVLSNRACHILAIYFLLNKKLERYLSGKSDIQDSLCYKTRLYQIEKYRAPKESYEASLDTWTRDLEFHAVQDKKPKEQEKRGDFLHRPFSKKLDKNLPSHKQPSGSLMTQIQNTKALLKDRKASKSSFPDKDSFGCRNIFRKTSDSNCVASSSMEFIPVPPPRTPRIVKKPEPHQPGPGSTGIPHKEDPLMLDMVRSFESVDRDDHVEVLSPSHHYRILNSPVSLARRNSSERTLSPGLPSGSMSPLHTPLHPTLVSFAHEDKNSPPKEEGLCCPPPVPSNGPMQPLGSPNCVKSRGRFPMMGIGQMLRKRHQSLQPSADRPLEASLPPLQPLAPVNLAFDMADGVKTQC
Description: as §1

INSR = target: T10, INSR (Homo sapiens, UniProt P06213); test: scanMAX Kinase analysis panel (DiscoverX); format: binding; settings: drug 1 μM in DMSO; from % control
T10 construct: purchased DiscoverX
Description: as §1

LRRK2(G2019S) = target: T11, LRRK2(G2019S) (Homo sapiens, UniProt Q5S007, G2019S); test: scanMAX Kinase analysis panel (DiscoverX); format: binding; settings: drug 1 μM in DMSO; from % control
T11 construct: purchased DiscoverX scanMAX Kinase analysis panel
Description: as §1

LTK = target: T12, LTK (Homo sapiens, UniProt P29376); test: scanMAX Kinase analysis panel (DiscoverX); format: binding; settings: drug 1 μM in DMSO; from % control
T12 construct: purchased DiscoverX scanMAX Kinase analysis panel
Description: as §1

MAPKAPK2 = target: T13, MAPKAPK2 (Homo sapiens, UniProt P49137); test: scanMAX Kinase analysis panel (DiscoverX); format: binding; settings: drug 1 μM in DMSO; from % control
T13 construct: purchased DiscoverX
Description: as §1

PAK2 = target: T14, PAK2 (Homo sapiens, UniProt Q13177); test: scanMAX Kinase analysis panel (DiscoverX); format: binding; settings: drug 1 μM in DMSO; from % control
T14 construct: purchased DiscoverX scanMAX Kinase analysis panel
Description: as §1

PHKG2 = target: T15, PHKG2 (Homo sapiens, UniProt P15735); test: scanMAX Kinase analysis panel (DiscoverX); format: binding; settings: drug 1 μM in DMSO; from % control
T15 construct: purchased DiscoverX scanMAX Kinase analysis panel
T15 sequence (P15735 whole entry): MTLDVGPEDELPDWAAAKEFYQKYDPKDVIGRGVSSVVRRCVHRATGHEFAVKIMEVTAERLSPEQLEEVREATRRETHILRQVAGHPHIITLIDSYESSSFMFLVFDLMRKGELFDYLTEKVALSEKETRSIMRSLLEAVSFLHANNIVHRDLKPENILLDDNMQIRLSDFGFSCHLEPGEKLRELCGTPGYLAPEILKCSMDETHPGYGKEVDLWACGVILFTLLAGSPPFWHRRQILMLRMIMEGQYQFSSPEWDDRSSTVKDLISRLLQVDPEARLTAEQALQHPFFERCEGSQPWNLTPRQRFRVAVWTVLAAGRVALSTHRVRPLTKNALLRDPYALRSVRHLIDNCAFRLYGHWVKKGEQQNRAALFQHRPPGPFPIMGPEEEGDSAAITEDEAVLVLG
Description: as §1

STK33 = target: T16, STK33 (Homo sapiens, UniProt Q9BYT3); test: scanMAX Kinase analysis panel (DiscoverX); format: binding; settings: drug 1 μM in DMSO; from % control
T16 construct: purchased DiscoverX scanMAX Kinase analysis panel
Description: as §1

STK39 = target: T17, STK39 (Homo sapiens, UniProt Q9UEW8); test: scanMAX Kinase analysis panel (DiscoverX); format: binding; settings: drug 1 μM in DMSO; from % control
T17 construct: purchased DiscoverX
Description: as §1

[1] = system: naive T cells in the mouse spleen; test: Regulatory T cell and Th17 cell differentiation; format: cell-based; settings: FIG. 2
Experimental: The experiment was conducted using Harmine as a control.

[2] = system: collagen-induced arthritis mouse model; test: Collagen-induced arthritis mouse model; format: in vivo, male DBA-1 mice
Experimental: In the present experiment, male DBA-1 mice aged 8 to 10 weeks were used as the animal model. After mixing Bovine Type II Collagen (CII) with the same amount of complete Freud's adjuvant, 100 μL was injected by intradermal injection into the tail of the DBA-1 mouse. After 21 days, the same CII was mixed with the same amount of incomplete Freud's adjuvant (IFA, Chondrex), then 100 μL was injected by intradermal injection into the tail. Observation of symptoms of the mouse model began at this point, and arthritis assessment was carried out every other day. […] In the case of the control group Enbrel (anti-TNF-α), 10 mg/kg was subcutaneously administered once every 2 days, then dexamethasone (0.15 mg/kg), Baricitinib (5 mg/kg), Filgotinib (50 mg/kg), and Tofacitinib (10 mg/kg) were orally administered twice a day; as for arthritis assessment, the scores assessed at the four feet of the mouse were added and divided by 4 to give a mean, based on the mean arthritic index by Rosloniec et al (Reference Literature 1: Brand D D, et al. Nat Protoc. 2007:2(5): 1269-75).
The scores and criteria for the arthritis assessment are as follows. • Score 0: No edema or erythema. • Score 1: Mild edema and erythema limited to the foot or ankle joint • Score 2: Mild edema and erythema from the ankle joint to the tarsals • Score 3: Moderate edema and erythema from the ankle joint to the metatarsals. • Score 4: Severe edema and skin flaring from the ankle to the entire leg, or stiffness in the leg
Upon termination of the experiment, the weight of the two hind legs of each mouse were measured and added, and these measurements were compared.
Vol. 30, No. I, p93-96.; Reference 3: Pine P R, et al. Clin Immunol. 124 (3): 244-57).

[3] = system: peripheral blood mononuclear cells of inflammatory bowel disease patients; test: Inflammatory cytokine expression in PBMC of inflammatory bowel disease patients; format: cell-based, human; settings: treated 24 hours; FIG. 4
[4] = system: DSS-induced inflammatory bowel disease mouse model; test: DSS-induced inflammatory bowel disease mouse model; format: in vivo, male C57BL/6 mice; settings: 20 mg/kg orally twice a day
Experimental: The animals used for the present experiment was male C57BL/6 mice (aged 6 to 8 weeks) weighting 20 to 24 g, purchased from Charles River Laboratories. All the mice except the normal control were made to drink 3% DSS water for 5 days to induce enteritis.
The comparative compound cyclosporine A was dissolved in 0.5% methylcellulose solvent and orally administered once a day at a prescribed concentration (20 mg/kg), and Tofacitinib was dissolved in 0.5% methylcellulose solvent and orally administered twice a day at a prescribed concentration (10 mg/kg).
Changes in body weight, occult bleeding in stool, and stool consistently were examined daily during the experiment to assess the degree of disease activity, and upon termination of the experiment (day 12), bowel tissue was collected in order to measure bowel tissue weight and length, perform histological analysis using H&E dyeing and PAS dyeing, and analyze expression of inflammatory cytokines in the bowel tissue.
To assess disease activity, changes in weight and other criteria disclosed in Table 4 below were used for scoring; scores were aggregated.

[5] = Metabolic stability (MS) evaluation; format: in vitro ADME
[6] = Metabolic stability (MS) evaluation; format: in vitro ADME; remark: listed apart in the source
Caco-2 permeability = format: in vitro ADME; settings: human
Description: Caco-2 permeability observes the cell membrane permeability of a drug, and can be considered an index associated with drug absorption and excretion.

[7] = 30 mg/kg orally twice a day, H&E and T-blue, FIGS. 3c to 3e

T1 sequence (P00519 whole entry): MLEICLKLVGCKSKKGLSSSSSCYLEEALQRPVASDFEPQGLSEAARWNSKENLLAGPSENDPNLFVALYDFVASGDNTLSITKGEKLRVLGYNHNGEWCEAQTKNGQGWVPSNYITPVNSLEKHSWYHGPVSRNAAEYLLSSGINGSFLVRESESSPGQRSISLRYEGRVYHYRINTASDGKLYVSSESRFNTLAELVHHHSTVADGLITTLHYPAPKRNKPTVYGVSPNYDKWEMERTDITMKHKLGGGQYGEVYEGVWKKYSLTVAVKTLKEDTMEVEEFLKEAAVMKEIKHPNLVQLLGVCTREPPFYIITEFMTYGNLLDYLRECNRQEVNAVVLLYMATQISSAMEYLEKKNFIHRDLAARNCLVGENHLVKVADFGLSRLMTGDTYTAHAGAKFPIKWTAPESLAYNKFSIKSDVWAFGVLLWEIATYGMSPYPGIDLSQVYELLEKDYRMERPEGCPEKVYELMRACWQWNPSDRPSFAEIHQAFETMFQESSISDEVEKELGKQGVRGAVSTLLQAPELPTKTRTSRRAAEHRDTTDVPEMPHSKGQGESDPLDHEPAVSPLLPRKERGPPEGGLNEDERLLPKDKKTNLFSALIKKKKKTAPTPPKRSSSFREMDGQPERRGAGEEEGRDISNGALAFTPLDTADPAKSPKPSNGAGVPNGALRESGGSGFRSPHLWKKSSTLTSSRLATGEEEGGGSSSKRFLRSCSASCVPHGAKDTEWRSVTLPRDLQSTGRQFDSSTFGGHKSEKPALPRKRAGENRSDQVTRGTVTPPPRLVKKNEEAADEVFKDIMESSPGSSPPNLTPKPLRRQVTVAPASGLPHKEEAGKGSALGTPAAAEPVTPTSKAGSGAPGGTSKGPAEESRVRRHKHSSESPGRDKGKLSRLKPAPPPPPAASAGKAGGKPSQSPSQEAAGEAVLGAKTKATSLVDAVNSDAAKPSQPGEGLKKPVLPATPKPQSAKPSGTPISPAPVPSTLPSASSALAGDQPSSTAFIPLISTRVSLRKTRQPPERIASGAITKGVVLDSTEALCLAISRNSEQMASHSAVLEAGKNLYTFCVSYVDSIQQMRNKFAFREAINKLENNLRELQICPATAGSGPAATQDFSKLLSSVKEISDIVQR

CCNc1cc(Nc2ccc(C(=O)N3CCC(N4CCOCC4)CC3)cc2OC)nc2[nH]cc(C(F)(F)F)c12 [Compound 1, (4-((4-(ethylamino)-3-(trifluoromethyl)-1H-pyrrolo[2,3-b]pyridine-6-yl)amino)-3-methoxyphenyl)(4-morpholinopiperidine-1-yl)methanone]
inhibition at 1 µM (ABL1-nonphosphorylated): 40 to 59% | inhibition at 1 µM (ALK): ≥ 59% | inhibition at 1 µM (ALK(C1156Y)): ≥ 59% | inhibition at 1 µM (CAMKK2): 40 to 59% | inhibition at 1 µM (CHEK2): 40 to 59% | inhibition at 1 µM (CSNK1D): ≥ 59% | inhibition at 1 µM (ERK5): 40 to 59% | inhibition at 1 µM (GAK): ≥ 59% | inhibition at 1 µM (HUNK): 40 to 59% | inhibition at 1 µM (INSR): 40 to 59% | inhibition at 1 µM (LRRK2(G2019S)): ≥ 59% | inhibition at 1 µM (LTK): ≥ 59% | inhibition at 1 µM (MAPKAPK2): 40 to 59% | inhibition at 1 µM (PAK2): ≥ 59% | inhibition at 1 µM (PHKG2): ≥ 59% | inhibition at 1 µM (STK33): ≥ 59% | inhibition at 1 µM (STK39): 40 to 59% | differentiation of Th17 cells ([1]; Th17 differentiation conditions): decreased | differentiation of regulatory T cells (Treg) ([1]; regulatory T cell differentiation conditions): increased | weight of the joint ([2]; 30 mg/kg orally twice a day for 2 weeks, FIG. 3b): reduced | area of cells where collagen-induced inflammation had occurred (histology) [2, 7]: reduced | area of the damaged joint (histology) [2, 7]: reduced | expression of IL-6 [3]: effectively inhibiting | expression of IL-17A [3]: effectively inhibiting | expression of TNF-α [3]: effectively inhibiting | disease activity ([4]; FIG. 7): reduced to the level of the control administered cyclosporine A | expression of IL-6 in bowel tissue ([4]; FIG. 8): decreased | expression of IL-17A in bowel tissue ([4]; FIG. 8): decreased | expression of TNR-α in bowel tissue ([4]; FIG. 8): decreased | loss of goblet cells ([4]; histological analysis, FIG. 8): reduced | body weight reduction ([4]; vs control not treated, FIG. 7): less weight reduction | MS (1 μM) (% remaining during 30 min) Mouse [5]: 40% | MS (1 μM) (% remaining during 30 min) Dog [6]: 96% | Papp (Caco-2 permeability): 0.201 ×10⁻⁶ cm/s

Source: patent US12194048B2, “Use of pyrrolopyridine derivatives for preventing or treating inflammatory diseases” (VORONOI CO., LTD., priority 2020, dated 2025)
